Experimental findings from ChEMBL document CHEMBL1130647, “Synthesis and in vitro cytotoxicity of 3-substituted-1,8-diazaanthraquinones produced by Lewis-acid catalyzed hetero Diels-Alder reaction” (Bioorg Med Chem Lett, 1998) are described below.

Holding throughout (type): functional, cell-based
Common to all, as to conditions: Homo sapiens

In one assay the test system is HOP-62. Description: In vitro cytotoxic activity against HOP62 (lung cancer) cell lines by using SRB assay.
Another assay relates to SF-295. Description: In vitro cytotoxic activity against SF-295 (CNS carcinoma) cell lines by using SRB assay. Background: In SRB staining, fixed cells bind dye roughly in proportion to their protein.
A further assay relates to HCT-15. Description: In vitro cytotoxic activity against HCT15 (colon cancer) cell lines by using SRB assay.
A further assay deals with SK-OV-3. The assay can be described thus: In vitro cytotoxic activity against SK-OV-3 (ovarian carcinoma) cell lines by using SRB assay.

With `O=C1c2cccnc2C(=O)c2ncc(CBr)cc21`, the IC50 (usually the midpoint of a concentration-inhibition curve) in the assay with HOP-62 is 55 nM; with SF-295, 500 nM; in the assay with HCT-15 it was 400 nM; in the assay with SK-OV-3, 300 nM.

On to `COc1cccc2c1C(=O)c1c(O)c3c(c(O)c1C2=O)C[C@@](O)(C(=O)CO)C[C@@H]3O[C@H]1C[C@H](N)[C@H](O)[C@H](C)O1` [DOXORUBICIN], for which the IC50 worked out at 4 nM with HOP-62, 35 nM in the assay on SF-295, 100 nM with HCT-15 and 20 nM with SK-OV-3.

Regarding `O=C1c2cccnc2C(=O)c2ncc(CO)cc21`, the IC50 with HOP-62 stood at 100 nM; in the assay on SF-295 it was 300 nM; in the assay on HCT-15, 400 nM; in the assay on SK-OV-3, 200 nM.

`CC(C)NC(=O)OCc1cnc2c(c1)C(=O)c1cccnc1C2=O`: the IC50 was 6 nM in the assay with HOP-62, 100 nM in the assay on SF-295, 20 nM in the assay on HCT-15 and 20 nM in the assay on SK-OV-3.

On to `Cc1cnc2c(c1)C(=O)c1cccnc1C2=O`, for which the IC50 amounted to 15 nM in the assay with HOP-62, 250 nM in the assay with SF-295, 350 nM with HCT-15 and 40 nM in the assay with SK-OV-3.
